From patent US12195460B2, “Pyrido-[3,4-d]pyridazine amine derivatives useful as NLRP3 inhibitors” (Ventus Therapeutics U.S., Inc., priority 2022, dated 2025) come the findings set out here.

Each structure is given as a SMILES string. Bounds are passed on as bounds.

The data set can be described thus: Brain levels (Kp and Kpu,u) in mice after oral administration. Type of data set: in vivo, CDI mice. The settings on record: 20 mpk PO; for kpu, u: kp corrected with mouse plasma protein binding and mouse brain homogenate binding; for Kp at 24 h: CDI, mouse, 20 mg/kg, whole brain AUC over 24 h divided by plasma AUC. The procedure:
Brain Levels (Kp and Kpu,u)—NLRP3
The in vivo total brain to plasma ratio was assessed in CDI mice after oral administration of the compound. Blood was collected at several timepoints up to 24 h, and transferred into plastic micro centrifuge tubes with EDTA-K2 as anticoagulant. Blood samples were centrifuged at 4000 g for 5 minutes at 4° C. to obtain plasma, then immediately frozen and stored at −75±15° C. prior to analysis. Animals were terminally anaesthetized with a rising concentration of CO2 gas at about 1 minute. At selected timepoints, whole brains were removed from the skull, rinsed in cold PBS to remove blood, dried with clean gauze, then frozen in liquid nitrogen and kept at −75±15° C. before analysis. At the time of analysis, brain samples were homogenized with PBS by tissue weight (g) to PBS volume (mL) ratio 1:3. Plasma and brain drug levels were quantified by LC/MS/MS on a AB Sciex Triple Quad 5500+ instrument, after separation on a HALO 160A ES-C18, 2.7 μm 2.1×50 mm column. Quantitation was performed using a calibration curve prepared in blank plasma or blank brain homogenate. The software WinNonlin (Phoenix™) was used for pharmacokinetic analysis from the concentrations versus time data, including the AUCinf and AUClast. The Kp ratio (total brain concentration over total plasma concentration) was calculated as (AUCtot,hr)/(AUCtot,pl).
The unbound brain exposure was assessed as Kpuu, which is the free brain/free plasma concentration ratio (Cu,hr/Cu,pl). The Cu,bt/Cu,pl ratios were obtained from in vivo total brain to plasma ratios (Ctot,br/Ctot,pl) by using in vitro determined Fu,br and Fu,pl.
Plasma protein binding and brain homogenate protein binding were measured by equilibrium dialysis in a HTDialysis plate. The dialysis membranes were soaked in ultrapure water for 60 minutes to separate strips, then in 20% ethanol for 20 minutes, finally in dialysis buffer for 20 minutes. The dialysis set up was assembled according to the manufacturer's instruction. Each cell received 150 μL of plasma or brain homogenate spiked with 1 μM of compound, and dialyzed against an equal volume of dialysis buffer (PBS). The dialysis plate was sealed and incubated in an incubator at 37° C. with 5% CO2 at 100 rpm for 6 hours. At the end of incubation, compound concentration was measured in both chambers by LC-MS/MS on a Triple Quad™ 5500 from AB Inc after separation on a XSelect Hss T3 2.5μ (2.1×30 mm) column. Free fraction (Fu) was calculated as (Peak Area Ratio buffer chamber/Peak Area Ratio plasma chamber).
Finally, Kpuu was calculated as (AUCtot,br×Fu,bt)/(AUCtot,pl×Fu,pl).
Table 3 assigns each compound a code for kp and kpu,u values: A or B. According to the code, A represents a value of >0.3 and B represents a value of <0.3. […] The kpu,u was then calculated upon correcting this kp value with mouse plasma protein binding and mouse brain homogenates binding.

On to `CC1(C)COC[C@@H]1Nc1nnc(-c2ccc(Cl)cc2O)c2ccncc12` [Compound 1, (R)-5-chloro-2-(4-((4,4-dimethyltetrahydrofuran-3-yl)amino)pyrido[3,4-d]pyridazin-1-yl)phenol], for which the “kpu, u” value is “A (A represents a value of >0.3)”.

`[2H]C([2H])([2H])OC(C)(C)CNc1nnc(-c2ccc(C(F)F)cc2O)c2ccncc12` [Compound 2, 5-(difluoromethyl)-2-(4-((2-(methoxy-d3)-2-methylpropyl)amino)pyrido[3,4-d]pyridazin-1-yl)phenol]: the “kpu, u” value was “A (A represents a value of >0.3)” and the Kp – broadly, tissue or fluid exposure divided by exposure in the circulation – at 24 h was above 0.3.

For the molecule `CC1(C)COCC[C@H]1Nc1nnc(-c2ccc(Cl)cc2O)c2ccncc12` [Compound 3, (R)-5-chloro-2-(4-((3,3-dimethyltetrahydro-2H-pyran-4-yl)amino)pyrido[3,4-d]pyridazin-1-yl)phenol], the “kpu, u” value was “A (A represents a value of >0.3)” and the Kp at 24 h was above 0.3.

Consider `CC1(C)C[C@@H](Nc2nnc(-c3ccc(Cl)cc3O)c3ccncc23)CCO1` [Compound 4, (S)-5-chloro-2-(4-((2,2-dimethyltetrahydro-2H-pyran-4-yl)amino)pyrido[3,4-d]pyridazin-1-yl)phenol], for which the “kpu, u” value is listed as “A (A represents a value of >0.3)”.

With `Cc1ccc(-c2nnc(N[C@H]3COC(C)(C)C3)c3cnccc23)c(O)c1` [Compound 5, (R)-2-(4-((5,5-dimethyltetrahydrofuran-3-yl)amino)pyrido[3,4-d]pyridazin-1-yl)-5-methylphenol], the “kpu, u” value is recorded as “A (A represents a value of >0.3)” and the Kp at 24 h was above 0.3.

For the molecule `CN1CCO[C@@H](CNc2nnc(-c3ccc(C(F)(F)F)cc3O)c3ccncc23)C1` [Compound 6, (S)-2-(4-(((4-methylmorpholin-2-yl)methyl)amino)pyrido[3,4-d]pyridazin-1-yl)-5-(trifluoromethyl)phenol], the “kpu, u” value is “A (A represents a value of >0.3)”.

Turning to `Oc1cc(Cl)ccc1-c1nnc(N[C@H]2CCOC2)c2cnccc12` [Compound 7, (S)-5-chloro-2-(4-((tetrahydrofuran-3-yl)amino)pyrido[3,4-d]pyridazin-1-yl)phenol, reference compound], the “kpu, u” value was “B (B represents a value of <0.3)”.

Consider `OCC1(CNc2nnc(-c3ccc(Cl)cc3O)c3ccncc23)CC1` [Compound 8, 5-chloro-2-(4-(((1-(hydroxymethyl)cyclopropyl)methyl)amino)pyrido[3,4-d]pyridazin-1-yl)phenol, reference compound], for which the “kpu, u” value was “B (B represents a value of <0.3)” and the Kp at 24 h is below 0.3.
